According to patent US9617282B2, “Macrocyclic compounds as IRAK4 inhibitors for the treatment of inflammatory diseases” (BIOGEN MA INC., priority 2013, dated 2017):

How the values were obtained:
IRAK4 = IRAK4 (Homo sapiens (Human), UniProt Q9NWZ3); experiment: IRAK-4 biochemical kinase assay, AlphaScreen format; settings: 1 nM IRAK4, 1.6 μM peptide, 10 μM ATP, 3.5 h at RT; class symbols
Experimental: The biochemical assay is in a AlphaScreen format. The kinase reaction is based on the IRAK-4 phosphorylation of a biotin labeled peptide. The phosphopeptide is incubated with anti-phosphothreonine antibody as well as streptavidin- and protein A-coated beads. Binding of the protein-A coated beads to the antibody and the streptavidin beads to the peptide, leads to an energy transfer from one bead to the other, ultimately producing a luminescent/fluorescent signal.

A549 cells = experiment: Cell-based assay, IL-6 ELISA quantification in IL-1 beta stimulated A549 cells; settings: 2 ng/ml human IL-1 beta overnight, class symbols, read-out: Celluar Data EC50
Experimental: The cell-based assays is based on IL-6 ELISA quantification. Briefly, A549 cells are cultured in DMEM with 10% FBS medium. When cells reach 80% confluence they are trypsin treated and seeded in 96-well plate at 2.5×10^4 cells/well. Then, 20 ul of compound serial dilutions (starting at 10 uM, 10 points) are added to the cell plate; incubate for 1 hour at 37 C and stimulated with 2 ng/ml human IL-1 beta 37 C overnight. The next day 100 ul of cell supernatant per well are analyzed on a Human IL-6 Quantikine ELISA kit from R&D Systems.

Chain of IRAK4 (Q9NWZ3 whole entry, species assumed): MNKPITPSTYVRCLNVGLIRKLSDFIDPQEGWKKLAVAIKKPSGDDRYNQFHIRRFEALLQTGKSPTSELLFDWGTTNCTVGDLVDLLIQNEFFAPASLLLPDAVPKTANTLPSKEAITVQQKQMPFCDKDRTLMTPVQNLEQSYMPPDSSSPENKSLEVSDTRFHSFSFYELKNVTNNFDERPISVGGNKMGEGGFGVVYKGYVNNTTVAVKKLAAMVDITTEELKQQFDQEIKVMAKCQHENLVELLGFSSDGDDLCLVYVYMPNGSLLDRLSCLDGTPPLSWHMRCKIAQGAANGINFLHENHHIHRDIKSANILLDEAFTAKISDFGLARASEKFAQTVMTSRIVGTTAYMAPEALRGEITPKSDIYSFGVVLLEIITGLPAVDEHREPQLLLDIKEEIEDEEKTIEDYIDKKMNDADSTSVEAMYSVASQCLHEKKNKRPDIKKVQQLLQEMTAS

Row | IC50 (IRAK4) [nM] | EC50 (A549 cells) [nM] | SMILES
1 | < 1000 | > 10000 | CN(C)CCn1cc2c(n1)C(=O)NCCOCCOc1cc(ccn1)-c1nc(cs1)C(=O)N2 [Example 111]
2 | < 100 | < 10000 | O=C1Nc2cn(CCN3CCOCC3)nc2C(=O)NCCOCCOc2cc(ccn2)-c2nc1cs2 [Example 112]
3 | < 100 | < 10000 | CN1CCN(CCn2cc3c(n2)C(=O)NCCOCCOc2cc(ccn2)-c2nc(cs2)C(=O)N3)CC1 [Example 113]
4 | < 100 | > 10000 | CC(C)(C)OC(=O)N1CCN(CCn2cc3c(n2)C(=O)NCCOCCOc2cc(ccn2)-c2nc(cs2)C(=O)N3)CC1 [Example 114]
5 | < 100 | < 10000 | O=C1Nc2cn(CCN3CCNCC3)nc2C(=O)NCCOCCOc2cc(ccn2)-c2nc1cs2 [Example 115]
6 | < 100 | > 10000 | O=C1Nc2cn(CCN3CCCCC3)nc2C(=O)NCCOCCOc2cc(ccn2)-c2nc1cs2 [Example 116]
7 | < 100 | < 10000 | CN(C)CCn1cc2c(n1)C(=O)NCCOCCNc1cc(ccn1)-c1nc(cs1)C(=O)N2 [Example 117]
8 | < 100 | < 1000 | O=C1Nc2cn(CCN3CCOCC3)nc2C(=O)NCCOCCNc2cc(ccn2)-c2nc1cs2 [Example 118]
9 | < 100 | < 1000 | O=C1Nc2cn(CCN3CCCCC3)nc2C(=O)NCCOCCNc2cc(ccn2)-c2nc1cs2 [Example 119]
10 | < 100 | < 1000 | Cn1cc2c(n1)C(=O)NCCCOCCOc1cc(ccn1)-c1nc(cs1)C(=O)N2 [Example 120]
11 | < 100 | < 10000 | O=C1Nc2cn(C3CCOCC3)nc2C(=O)NCCCOCCOc2cc(ccn2)-c2nc1cs2 [Example 121]
12 | < 100 | < 1000 | Cn1cc2c(n1)C(=O)NCCOCCCOc1cc(ccn1)-c1nc(cs1)C(=O)N2 [Example 122]
13 | < 100 | < 1000 | O=C1Nc2cn(C3CCOCC3)nc2C(=O)NCCOCCCOc2cc(ccn2)-c2nc1cs2 [Example 123]
14 | < 100 | < 1000 | O=C1Nc2cn(C3CCOCC3)nc2C(=O)NCCCOCCOc2cc(ccn2)-c2nc1co2 [Example 125]
15 | < 1000 | > 10000 | O=C1CCNC(=O)c2csc(n2)-c2ccnc(c2)OCCOCCN1 [Example 126]
16 | < 100 | < 1000 | O=C1Nc2ccccc2C(=O)NCCOCCOc2cc(ccn2)-c2nc1cs2 [Example 127]
17 | < 100 | > 10000 | O=C1Nc2cccnc2C(=O)NCCOCCOc2cc(ccn2)-c2nc1cs2 [Example 128]
18 | < 100 | < 1000 | O=C1Nc2ccncc2C(=O)NCCOCCOc2cc(ccn2)-c2nc1cs2 [Example 129]
19 | < 100 | < 1000 | O=C1Nc2cnccc2C(=O)NCCOCCOc2cc(ccn2)-c2nc1cs2 [Example 130]
20 | < 100 | < 1000 | Cn1cc2c(n1)C(=O)NCCCCNc1cc(ccn1)-c1nc(cs1)C(=O)N2 [Example 131]
21 | < 100 | < 1000 | O=C1Nc2cn(C3CCOCC3)nc2C(=O)NCCCCNc2cc(ccn2)-c2nc1cs2 [Example 132]
22 | < 1000 | < 10000 | Cn1cc2c(n1)C(=O)NCCOCCc1cc(ccn1)-c1nc(cs1)C(=O)N2 [Example 133]
23 | < 100 | > 10000 | O=C1Nc2cn(C3CCOCC3)nc2C(=O)NCCOCCc2cc(ccn2)-c2nc1cs2 [Example 134]
24 | < 100 | < 1000 | Cn1cc2c(n1)C(=O)NCCOCCCn1cc(cn1)-c1nc(cs1)C(=O)N2 [Example 135]

Row | IC50 (IRAK4) [nM] | EC50 (A549 cells) [nM] | SMILES
25 | < 100 | < 1000 | O=C1Nc2cn(C3CCOCC3)nc2C(=O)NCCOCCCn2cc(cn2)-c2nc1cs2 [Example 136]
26 | < 100 | > 10000 | CC(C)(C)OC(=O)Cn1cc2c(n1)C(=O)NCCOCCOc1cc(ccn1)-c1nc(cs1)C(=O)N2 [Example 137]
27 | < 100 | > 10000 | CN(C)CCCn1cc2c(n1)C(=O)NCCOCCOc1cc(ccn1)-c1nc(cs1)C(=O)N2 [Example 138]
28 | < 100 | > 10000 | CCn1cc2c(n1)C(=O)NCCOCCOc1cc(ccn1)-c1nc(cs1)C(=O)N2 [Example 139]
29 | < 100 | < 1000 | Cn1cc2c(n1)C(=O)NCCC/C=C/CCCNc1cc(ccn1)-c1nc(co1)C(=O)N2 [Example 140]
30 | < 1000 | > 10000 | CN1CCN(CCn2ncc3c2C(=O)NCCOCCNc2cc(ccn2)-c2nc(cs2)C(=O)N3)CC1 [Example 142]
31 | < 100 | < 10000 | CN1CCN(CCn2cc3c(n2)C(=O)NCCOCCNc2cc(ccn2)-c2nc(cs2)C(=O)N3)CC1 [Example 143]
32 | < 100 | < 10000 | CC(C)(C)OC(=O)N1CCN(CCn2cc3c(n2)C(=O)NCCOCCNc2cc(ccn2)-c2nc(cs2)C(=O)N3)CC1 [Example 144]
33 | < 100 | < 10000 | O=C1Nc2cn(CCN3CCNCC3)nc2C(=O)NCCOCCNc2cc(ccn2)-c2nc1cs2 [Example 145]
34 | < 10000 | > 10000 | O=C(O)Cn1cc2c(n1)C(=O)NCCOCCOc1cc(ccn1)-c1nc(cs1)C(=O)N2 [Example 146]
35 | < 1000 | > 10000 | NC(=O)Cn1cc2c(n1)C(=O)NCCOCCOc1cc(ccn1)-c1nc(cs1)C(=O)N2 [Example 147]
36 | < 1000 | > 10000 | O=C(O)CCn1cc2c(n1)C(=O)NCCOCCOc1cc(ccn1)-c1nc(cs1)C(=O)N2 [Example 149]
37 | < 100 | > 10000 | CCOC(=O)CCn1cc2c(n1)C(=O)NCCOCCOc1cc(ccn1)-c1nc(cs1)C(=O)N2 [Example 150]
38 | < 1000 | > 10000 | NC(=O)CCn1cc2c(n1)C(=O)NCCOCCOc1cc(ccn1)-c1nc(cs1)C(=O)N2 [Example 151]
39 | < 100 | > 10000 | O=C1Nc2cn(CCCO)nc2C(=O)NCCOCCOc2cc(ccn2)-c2nc1cs2 [Example 152]
40 | < 100 | > 10000 | CN1CCC(CCn2cc3c(n2)C(=O)NCCOCCOc2cc(ccn2)-c2nc(cs2)C(=O)N3)CC1 [Example 153]
41 | < 100 | > 10000 | CC(C)(C)OC(=O)N1CCC(CCn2cc3c(n2)C(=O)NCCOCCOc2cc(ccn2)-c2nc(cs2)C(=O)N3)CC1 [Example 154]
42 | < 100 | > 10000 | O=C1Nc2cn(CCC3CCNCC3)nc2C(=O)NCCOCCOc2cc(ccn2)-c2nc1cs2 [Example 155]
43 | < 1000 | > 10000 | CN1CCC(Cn2cc3c(n2)C(=O)NCCOCCOc2cc(ccn2)-c2nc(cs2)C(=O)N3)CC1 [Example 158]
44 | < 100 | < 10000 | CC(C)(C)OC(=O)N1CCC(Cn2cc3c(n2)C(=O)NCCOCCOc2cc(ccn2)-c2nc(cs2)C(=O)N3)CC1 [Example 159]
45 | < 1000 | > 10000 | O=C1Nc2cn(CC3CCNCC3)nc2C(=O)NCCOCCOc2cc(ccn2)-c2nc1cs2 [Example 160]
46 | < 100 | > 10000 | CNC(=O)Cn1cc2c(n1)C(=O)NCCOCCOc1cc(ccn1)-c1nc(cs1)C(=O)N2 [Example 161]
47 | < 100 | > 10000 | CC(C)n1cc2c(n1)C(=O)NCCOCCOc1cc(ccn1)-c1nc(cs1)C(=O)N2 [Example 162]
48 | < 100 | < 10000 | CC(C)(C)OC(=O)N1CCC(n2cc3c(n2)C(=O)NCCOCCOc2cc(ccn2)-c2nc(cs2)C(=O)N3)CC1 [Example 164]
